Like-named read-outs stand apart in the source and are kept apart here.
Experiments:
[1] = system: gel-filtered human platelets; experiment: Inhibition of the aggregation of gel-filtered human platelets after ADP or thrombin stimulation; format: cell-based; details: Platelet
Protocol: (§1) The compounds are tested in particular for their inhibitory effect on blood platelet aggregation and the adhesion of fibrinogen to blood platelets. Gel-filtered blood platelets from human donor blood are used, which are activated with ADP or thrombin.
As a functional test, the inhibition of the aggregation of gel-filtered human platelets is measured after ADP or thrombin stimulation by the compounds according to the invention. The IC50 value of the inhibition is indicated (reference: G. A. Marguerie et al., J. Biol. Chem. 254 (1979), 5357-5363).
(§2) On testing of the inhibition of fibrinogen binding and the inhibition of aggregation, the following results are obtained for the compounds of the examples which follow: […]

[2] = molecular target: T1, fibrinogen receptor (glycoprotein IIb/IIIa) (Homo sapiens, UniProt P05106+P08514); experiment: Inhibition of the binding of 125I-fibrinogen to its receptor (glycoprotein IIb/IIIa) on intact, gel-filtered human platelets; details: after stimulation with ADP (10 μM)
T1 construct: on intact, gel-filtered human platelets; from tissue; host or cells: gel-filtered blood platelets from human donor blood
T1 sequence (P08514 32-887 limits assumed): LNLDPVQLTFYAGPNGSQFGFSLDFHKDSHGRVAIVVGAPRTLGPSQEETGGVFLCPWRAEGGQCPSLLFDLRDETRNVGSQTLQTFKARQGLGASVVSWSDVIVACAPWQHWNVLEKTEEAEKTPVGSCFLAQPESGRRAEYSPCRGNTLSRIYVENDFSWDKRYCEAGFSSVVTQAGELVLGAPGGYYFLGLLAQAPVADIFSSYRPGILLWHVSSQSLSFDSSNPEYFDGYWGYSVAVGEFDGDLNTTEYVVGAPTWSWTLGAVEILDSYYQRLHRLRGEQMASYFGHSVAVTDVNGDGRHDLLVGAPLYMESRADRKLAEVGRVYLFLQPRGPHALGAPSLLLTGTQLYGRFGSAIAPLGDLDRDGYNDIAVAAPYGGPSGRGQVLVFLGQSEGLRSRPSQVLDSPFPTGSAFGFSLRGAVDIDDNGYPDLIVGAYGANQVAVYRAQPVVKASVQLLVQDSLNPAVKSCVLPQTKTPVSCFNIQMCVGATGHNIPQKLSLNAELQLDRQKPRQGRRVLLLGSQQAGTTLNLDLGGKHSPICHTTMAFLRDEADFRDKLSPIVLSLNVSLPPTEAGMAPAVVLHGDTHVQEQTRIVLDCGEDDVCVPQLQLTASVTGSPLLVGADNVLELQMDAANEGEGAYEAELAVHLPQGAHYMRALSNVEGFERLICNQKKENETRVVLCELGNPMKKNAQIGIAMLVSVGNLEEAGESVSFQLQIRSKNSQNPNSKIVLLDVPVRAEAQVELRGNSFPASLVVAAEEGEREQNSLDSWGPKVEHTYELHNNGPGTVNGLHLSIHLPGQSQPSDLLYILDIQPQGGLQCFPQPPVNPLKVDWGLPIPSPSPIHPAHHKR
T1 sequence (P08514 891-1039 limits assumed): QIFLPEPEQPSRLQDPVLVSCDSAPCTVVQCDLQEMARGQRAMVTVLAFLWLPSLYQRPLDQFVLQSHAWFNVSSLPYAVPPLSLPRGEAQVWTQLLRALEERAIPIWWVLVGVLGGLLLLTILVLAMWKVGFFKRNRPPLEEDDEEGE
T1 sequence (P05106 27-788): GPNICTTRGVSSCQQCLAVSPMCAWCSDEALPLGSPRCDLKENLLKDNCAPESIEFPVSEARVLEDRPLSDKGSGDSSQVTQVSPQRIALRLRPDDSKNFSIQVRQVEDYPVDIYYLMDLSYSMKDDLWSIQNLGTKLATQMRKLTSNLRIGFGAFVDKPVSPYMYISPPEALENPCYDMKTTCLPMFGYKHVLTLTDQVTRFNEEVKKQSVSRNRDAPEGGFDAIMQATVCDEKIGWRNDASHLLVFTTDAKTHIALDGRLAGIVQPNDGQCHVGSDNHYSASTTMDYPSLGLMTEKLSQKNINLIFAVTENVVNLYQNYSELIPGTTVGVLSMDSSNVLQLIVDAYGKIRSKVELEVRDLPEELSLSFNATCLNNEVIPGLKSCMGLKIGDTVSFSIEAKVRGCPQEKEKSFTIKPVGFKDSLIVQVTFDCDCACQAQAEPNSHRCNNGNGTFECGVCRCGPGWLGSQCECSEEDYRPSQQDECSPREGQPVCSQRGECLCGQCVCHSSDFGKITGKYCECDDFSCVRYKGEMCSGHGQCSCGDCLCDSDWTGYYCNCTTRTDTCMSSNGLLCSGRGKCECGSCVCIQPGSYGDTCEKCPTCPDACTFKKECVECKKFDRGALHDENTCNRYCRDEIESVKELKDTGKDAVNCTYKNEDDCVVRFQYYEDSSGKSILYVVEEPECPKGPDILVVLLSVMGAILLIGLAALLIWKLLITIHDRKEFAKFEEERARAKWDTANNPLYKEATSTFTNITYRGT
Protocol: as §1
The inhibition of the binding of fibrinogen to its receptor (glycoprotein IIb/IIIa) on intact, gel-filtered human platelets by the compounds according to the invention is tested. The Ki value of the inhibition of binding of […] after stimulation with ADP (10 μM) is indicated. (Reference: J. S. Bennett and G. Vilaire, J. Clin. Invest. 64 (1979) 1393-1401; E. Kornecki et al., J. Biol. Chem. 256 (1981), 5695-5701; G. A. Marguerie et al., J. Biol. Chem. 254 (1979) 5357-5363; G. A. Marguerie et al., J. Biol. Chem. 255 (1980) 154-161.)
as §2

[3] = ADP stimulation, read-out: Inhibition of platelet aggregation, ADP (IC50)
[4] = thrombin stimulation, read-out: Inhibition of platelet aggregation, thrombin (IC50)

Structure (SMILES) | IC50 [1, 3] | IC50 [1, 4] | Ki [2]
COC(=O)C(CCc1ccccc1)NC(=O)CN1C(=O)CC(Cc2ccc(C(=N)N)cc2)C1=O (racemic) [Example 13, {3-[4-(Aminoiminomethyl)benzyl]-2,5-dioxopyrrolidin-1-yl}acetyl-D,L-homophenylalanine methyl ester] | 100 µM | 100 µM | 
COC(=O)CC(NC(=O)CN1C(=O)CC(Cc2ccc(C(=N)N)cc2)C1=O)c1cccc(O)c1 (racemic) [Example 15, Methyl 3-(R,S)-3-<{3-[4-(aminoiminomethyl)benzyl]-2,5-dioxopyrrolidin-1-yl}acetamido>-3-(3-hydroxyphenyl)propionate] | 200 µM | 200 µM | 
N=C(N)c1ccc(CC2CC(=O)N(CC(=O)NC(CCc3ccccc3)C(=O)O)C2=O)cc1 (racemic) [Example 17, {3-[4-(Aminoiminomethyl)benzyl]-2,5-dioxopyrrolidin-1-yl}acetyl-D,L-homophenylalanine] | 100 µM | 100 µM | 
COC(=O)[C@H](Cc1c[nH]c2ccccc12)NC(=O)CN1C(=O)CC(Cc2ccc(C(=N)N)cc2)C1=O (stereo partly drawn) [Example 12, {3-[4-(Aminoiminomethyl)benzyl]-2,5-dioxopyrrolidin-1-yl}acetyl-L-tryptophan methyl ester] | 100 µM | 80 µM | 
N=C(N)c1ccc(CC2CC(=O)N(CC(=O)N[C@@H](Cc3c[nH]c4ccccc34)C(=O)O)C2=O)cc1 (stereo partly drawn) [Example 18, {3-[4-(Aminoiminomethyl)benzyl]-2,5-dioxopyrrolidin-1-yl}acetyl-L-tryptophan] | 100 µM | 70 µM | 

The next compounds have a lower IC50 [1, 3] than those just listed; values first:

IC50 [1, 3] | IC50 [1, 4] | Ki [2] | Structure (SMILES)
20 µM | 9 µM |  | N=C(N)c1ccc(CC2CC(=O)N(CC(=O)NC(CC(=O)O)c3cccc(O)c3)C2=O)cc1 (racemic) [Example 16, 3-(R,S)-3-<{3-[4-(Aminoiminomethyl)benzyl]-2,5-dioxopyrrolidin-1-yl}acetamido>-3-(3-hydroxyphenyl)propionate]
0.2 µM | 0.09 µM | 43 nM | N=C(N)c1ccc(CC2CC(=O)N(CC(=O)N[C@@H](CC(=O)O)C(=O)N[C@H](C(=O)O)c3ccccc3)C2=O)cc1 (stereo partly drawn) [Example 1, {3-[4-(Aminoiminomethyl)benzyl]-2,5-dioxopyrrolidin-1-yl}acetyl-L-aspartyl-L-phenylglycine]
20 µM | 35 µM |  | CC(C)OC(=O)C[C@H](NC(=O)CN1C(=O)CC(Cc2ccc(C(=N)N)cc2)C1=O)C(=O)N[C@H](C(=O)OC(C)C)c1ccccc1 (stereo partly drawn) [Example 14, {3-[4-(Aminoiminomethyl)benzyl]-2,5-dioxopyrrolidin-1-yl}acetyl-L-(β-isopropyl)aspartyl-L-phenylglycine isopropyl ester]
4 µM | 1 µM |  | O=C(O)C[C@H](NC(=O)CN1C(=O)CC(CC2CCNCC2)C1=O)C(=O)N[C@H](C(=O)O)c1ccccc1 (stereo partly shown) [Example 19]

— patent publication US5658935A, “Heterocycles, their preparation and their use” (Hoechst Aktiengesellschaft, priority 1993, dated 1997)
